Holding throughout (format): cell-based
Assay [1] has as its system Z-138 cells. Briefly: Z-138 Proliferation Assay (Cell Titer-Glo). The settings on record: 72 hours; for Ymin (%): % remaining (percent of DMSO control); for EC50: Homo sapiens, Cell Titer-Glo, 4-parameter curve fit. The method in brief: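 Z-138 cells (4,000 cells/well, IMDM + 10% FBS) exposed 72 h to 10-point 1:2 compound dilutions from 10,000 nM top, 0.1% DMSO. Viability read by CellTiter-Glo luminescence; EC50 from 4-parameter fit of percent of DMSO control.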

Assay [2] concerns the target GSPT1 (Homo sapiens, UniProt P15170+Q96SW2). Briefly: HiBiT degradation assay, GSPT1, Procedure B (Molt 4_hGSPT1_HiBIT cells). Particulars: six hours. Further details: Molt 4_hGSPT1_HiBIT N-terminus tagged cells were generated using CRISPR technology; endogenous in cells; host or cells: Molt 4 cells, CRISPR-edited. The method in brief:
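CRISPR N-terminal HiBiT-tagged Molt 4 cells at 1×10^6 cells/ml were treated 6 h at 37° C with compounds (10-point, 10 μM to 0.005 μM, 0.1% DMSO). Remaining HiBiT-GSPT1 was read by lytic luminescence; DC50 and Ymin (% remaining) from a 4-parameter fit.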

The target in assay [3] is T1, CK1α (Homo sapiens, UniProt P48729+Q96SW2).
T1 construct: CSNK1A1-HiBit KI HEK293(LgBit) Cells; host or cells: HEK293(LgBit) knock-in cells
T1 sequence (P48729 whole entry): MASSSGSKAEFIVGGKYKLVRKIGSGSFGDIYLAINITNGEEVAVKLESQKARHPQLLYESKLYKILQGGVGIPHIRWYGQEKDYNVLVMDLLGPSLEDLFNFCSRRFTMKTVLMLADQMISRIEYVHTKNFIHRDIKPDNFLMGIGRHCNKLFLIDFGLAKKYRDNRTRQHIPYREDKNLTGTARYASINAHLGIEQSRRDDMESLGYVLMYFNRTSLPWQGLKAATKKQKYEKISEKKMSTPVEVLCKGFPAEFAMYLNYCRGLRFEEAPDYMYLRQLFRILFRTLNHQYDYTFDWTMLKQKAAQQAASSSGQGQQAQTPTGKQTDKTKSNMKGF
T1 sequence (Q96SW2 whole entry): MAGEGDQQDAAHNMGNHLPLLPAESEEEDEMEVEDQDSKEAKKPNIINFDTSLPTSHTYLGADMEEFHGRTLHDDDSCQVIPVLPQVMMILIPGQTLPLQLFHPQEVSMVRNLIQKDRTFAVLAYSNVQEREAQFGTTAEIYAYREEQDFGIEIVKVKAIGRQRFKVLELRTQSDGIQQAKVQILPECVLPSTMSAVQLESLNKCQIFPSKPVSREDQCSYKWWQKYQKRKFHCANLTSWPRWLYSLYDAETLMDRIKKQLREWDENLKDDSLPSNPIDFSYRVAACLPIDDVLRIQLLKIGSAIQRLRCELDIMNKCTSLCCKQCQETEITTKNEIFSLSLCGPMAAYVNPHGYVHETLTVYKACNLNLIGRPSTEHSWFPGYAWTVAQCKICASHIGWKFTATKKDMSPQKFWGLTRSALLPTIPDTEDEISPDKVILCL
T1 sequence (Q16531 whole entry partner): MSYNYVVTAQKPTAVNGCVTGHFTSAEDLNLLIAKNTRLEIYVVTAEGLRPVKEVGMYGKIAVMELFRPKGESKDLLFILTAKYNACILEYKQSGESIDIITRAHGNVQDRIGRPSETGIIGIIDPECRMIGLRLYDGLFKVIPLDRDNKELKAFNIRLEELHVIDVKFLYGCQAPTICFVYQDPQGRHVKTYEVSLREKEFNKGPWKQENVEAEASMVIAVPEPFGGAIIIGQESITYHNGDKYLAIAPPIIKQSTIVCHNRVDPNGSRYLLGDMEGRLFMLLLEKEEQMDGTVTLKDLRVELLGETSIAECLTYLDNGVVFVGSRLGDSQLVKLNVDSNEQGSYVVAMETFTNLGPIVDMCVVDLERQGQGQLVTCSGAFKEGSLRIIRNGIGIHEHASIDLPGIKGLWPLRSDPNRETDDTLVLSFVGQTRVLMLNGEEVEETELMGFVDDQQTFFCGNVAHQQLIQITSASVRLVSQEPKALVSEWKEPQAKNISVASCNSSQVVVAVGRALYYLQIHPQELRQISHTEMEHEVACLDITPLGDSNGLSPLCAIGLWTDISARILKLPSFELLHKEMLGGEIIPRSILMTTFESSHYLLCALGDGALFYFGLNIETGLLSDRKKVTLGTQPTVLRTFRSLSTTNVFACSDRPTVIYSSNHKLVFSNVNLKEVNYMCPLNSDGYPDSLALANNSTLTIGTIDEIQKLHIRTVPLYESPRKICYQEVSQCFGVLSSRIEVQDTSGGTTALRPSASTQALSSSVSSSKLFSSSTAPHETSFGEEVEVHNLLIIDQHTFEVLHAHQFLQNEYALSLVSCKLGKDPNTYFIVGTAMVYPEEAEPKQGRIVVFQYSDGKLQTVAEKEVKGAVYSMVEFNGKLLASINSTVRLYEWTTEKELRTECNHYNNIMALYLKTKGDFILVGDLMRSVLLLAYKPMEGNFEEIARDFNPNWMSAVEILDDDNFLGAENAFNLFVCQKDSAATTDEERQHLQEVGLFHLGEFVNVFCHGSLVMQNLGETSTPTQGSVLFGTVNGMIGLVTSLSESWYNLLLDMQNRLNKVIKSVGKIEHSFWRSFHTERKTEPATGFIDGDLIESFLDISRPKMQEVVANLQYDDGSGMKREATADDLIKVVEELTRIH
Briefly: HiBiT degradation assay, CK1α, Procedure A. The settings on record: six hours. The method in brief:
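Cells in DMEM + 10% FBS were treated with compound in a ten-point dose response from 10 μM to 0.005 μM (0.1% DMSO) for six hours at 37° C. Lysis with Nano-Glo HiBiT detection reagent followed, with luminescence read. DC50 and Ymin came from a 4-parameter fit.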

Sequence of GSPT1 (P15170 whole entry): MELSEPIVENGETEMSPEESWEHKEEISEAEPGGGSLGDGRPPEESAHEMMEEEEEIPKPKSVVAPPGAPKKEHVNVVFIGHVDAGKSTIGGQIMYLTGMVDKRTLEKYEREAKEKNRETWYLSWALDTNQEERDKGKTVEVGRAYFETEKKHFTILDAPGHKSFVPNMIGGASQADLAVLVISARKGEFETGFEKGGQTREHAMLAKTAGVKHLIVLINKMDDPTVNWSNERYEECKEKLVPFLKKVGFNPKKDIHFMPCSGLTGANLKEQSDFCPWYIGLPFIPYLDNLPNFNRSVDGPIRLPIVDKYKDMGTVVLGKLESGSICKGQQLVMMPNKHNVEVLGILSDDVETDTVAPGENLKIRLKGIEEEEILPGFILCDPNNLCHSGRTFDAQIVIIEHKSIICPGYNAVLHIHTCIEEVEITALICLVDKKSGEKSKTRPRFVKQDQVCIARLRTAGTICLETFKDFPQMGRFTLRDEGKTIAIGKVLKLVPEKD
Sequence of GSPT1 (Q96SW2 whole entry): as the sequence (Q96SW2 whole entry) above
Sequence of GSPT1 (Q16531 whole entry partner): as the sequence (Q16531 whole entry partner) above

On to `O=C1CCC(N2Cc3cc(-c4cc(-c5ccccc5)n(C5CC5)n4)ccc3C2=O)C(=O)N1` (stereo not drawn) [Example 621, 3-(5-(1-cyclopropyl-5-phenyl-1H-pyrazol-3-yl)-1-oxoisoindolin-2-yl)piperidine-2,6-dione], for which, in assay [1], the “Ymin (%)” value is given as “D (0-10% remaining)” and the EC50 was below 10 nM. Besides, in assay [2], the 50% degradation concentration (DC50) was at least 25 nM and the “GSPT1 Ymin” value was “F (F = >75-100% remaining)”. In assay [3], the “CK1α Ymin” value is “C (C = 0-10% remaining)” and the 50% degradation concentration (DC50) is below 25 nM.
Consider `Cn1nc(-c2ccc3c(c2)CN(C2CCC(=O)NC2=O)C3=O)nc1-c1ccc(Cl)cc1` (stereo not drawn) [Example 622, 3-(5-(5-(4-chlorophenyl)-1-methyl-1H-1,2,4-triazol-3-yl)-1-oxoisoindolin-2-yl)piperidine-2,6-dione], for which, in assay [1], the “Ymin (%)” value is reported as “E (>10-25% remaining)” and the EC50 lay within 10 to 100 nM. In assay [2], the DC50 is at least 25 nM and the “GSPT1 Ymin” value is given as “E (E = >25-75% remaining)”. In addition, in assay [3], the “CK1α Ymin” value is on record as “D (D = >10- 25% remaining)” and the DC50 was below 25 nM.
As to `Cn1ncc(-c2ccc3c(c2)CN(C2CCC(=O)NC2=O)C3=O)c1C1CCCC1` (stereo not drawn) [Example 692], in assay [1], the “Ymin (%)” value is “E (>10-25% remaining)” and the EC50 was 100 to 500 nM. In assay [2], the DC50 is at least 25 nM and the “GSPT1 Ymin” value is “F (F = >75-100% remaining)”. Moreover, in assay [3], the “CK1α Ymin” value is “E (E = >25-75% remaining)” and the half-maximal degradation concentration (DC50) is at least 25 nM.
As to `O=C1CCC(N2Cc3cc(-c4cc(-c5ccccc5)n(CC(F)(F)F)n4)ccc3C2=O)C(=O)N1` (stereo not drawn) [Example 710, 3-(1-oxo-5-(5-phenyl-1-(2,2,2-trifluoroethyl)-1H-pyrazol-3-yl)isoindolin-2-yl)piperidine-2,6-dione], in assay [1], the “Ymin (%)” value is on record as “E (>10-25% remaining)” and the EC50 was below 10 nM. In assay [2], the DC50 is below 25 nM and the “GSPT1 Ymin” value is reported as “F (F = >75-100% remaining)”. Also, in assay [3], the “CK1α Ymin” value is “C (C = 0-10% remaining)” and the DC50 is below 25 nM.
For the compound `Cn1nc(-c2ccc3c(c2)CN(C2CCC(=O)NC2=O)C3=O)cc1-c1ccc(Cl)cc1` (stereo not drawn) [Example 717, 3-(5-(5-(4-chlorophenyl)-1-methyl-1H-pyrazol-3-yl)-1-oxoisoindolin-2-yl)piperidine-2,6-dione], in assay [1], the “Ymin (%)” value was “E (>10-25% remaining)” and the EC50 was 10 to 100 nM. In assay [2], the DC50 is at least 25 nM and the “GSPT1 Ymin” value is on record as “F (F = >75-100% remaining)”. Besides, in assay [3], the “CK1α Ymin” value is recorded as “D (D = >10- 25% remaining)” and the DC50 was below 25 nM.
For the compound `CC(C)c1nc(-c2ccc3c(c2)CN(C2CCC(=O)NC2=O)C3=O)c(-c2ccccc2)n1C` (stereo not drawn) [Example 726, 3-(5-(2-isopropyl-1-methyl-5-phenyl-1H-imidazol-4-yl)-1-oxoisoindolin-2-yl)piperidine-2,6-dione], in assay [1], the “Ymin (%)” value is “D (0-10% remaining)” and the EC50 was below 10 nM. For the same compound, in assay [2], the 50% degradation concentration (DC50) was at least 25 nM and the “GSPT1 Ymin” value is given as “F (F = >75-100% remaining)”. In assay [3], the “CK1α Ymin” value was “C (C = 0-10% remaining)” and the half-maximal degradation concentration (DC50) was below 25 nM.
Regarding `CC(C)c1nc(-c2ccc3c(c2)CN(C2CCC(=O)NC2=O)C3=O)cn1-c1ccccc1` (stereo not drawn) [Example 728, 3-(5-(2-isopropyl-1-phenyl-1H-imidazol-4-yl)-1-oxoisoindolin-2-yl)piperidine-2,6-dione], in assay [1], the “Ymin (%)” value is “E (>10-25% remaining)” and the EC50 was below 10 nM. In addition, in assay [2], the DC50 was at least 25 nM and the “GSPT1 Ymin” value was “F (F = >75-100% remaining)”. Moreover, in assay [3], the “CK1α Ymin” value is listed as “C (C = 0-10% remaining)” and the DC50 was below 25 nM.
Regarding `Cc1cn(-c2ccccc2)c(-c2ccc3c(c2)CN(C2CCC(=O)NC2=O)C3=O)n1` (stereo not drawn) [Example 729, 3-(5-(4-methyl-1-phenyl-1H-imidazol-2-yl)-1-oxoisoindolin-2-yl)piperidine-2,6-dione], in assay [1], the “Ymin (%)” value is “D (0-10% remaining)” and the EC50 was below 10 nM. Besides, in assay [2], the DC50 was below 25 nM and the “GSPT1 Ymin” value is reported as “E (E = >25-75% remaining)”. In assay [3], the “CK1α Ymin” value is “C (C = 0-10% remaining)” and the DC50 was below 25 nM.
In the case of `CCc1cn(-c2ccccc2)c(-c2ccc3c(c2)CN(C2CCC(=O)NC2=O)C3=O)n1` (stereo not drawn) [Example 730, 3-(5-(4-ethyl-1-phenyl-1H-imidazol-2-yl)-1-oxoisoindolin-2-yl)piperidine-2,6-dione], in assay [1], the “Ymin (%)” value was “D (0-10% remaining)” and the EC50 is below 10 nM. In assay [2], the DC50 is below 25 nM and the “GSPT1 Ymin” value is on record as “E (E = >25-75% remaining)”. In assay [3], the “CK1α Ymin” value was “C (C = 0-10% remaining)” and the DC50 is below 25 nM.
`CC(C)c1cn(-c2ccccc2)c(-c2ccc3c(c2)CN(C2CCC(=O)NC2=O)C3=O)n1` (stereo not drawn) [Example 731, 3-(5-(4-isopropyl-1-phenyl-1H-imidazol-2-yl)-1-oxoisoindolin-2-yl)piperidine-2,6-dione]: in assay [1], the “Ymin (%)” value was “D (0-10% remaining)” and the EC50 is below 10 nM. In addition, in assay [2], the DC50 is below 25 nM and the “GSPT1 Ymin” value is “E (E = >25-75% remaining)”. In assay [3], the “CK1α Ymin” value is “C (C = 0-10% remaining)” and the half-maximal degradation concentration (DC50) is below 25 nM.
`CC(C)Cc1nc(-c2ccc3c(c2)CN(C2CCC(=O)NC2=O)C3=O)c(-c2ccccc2)o1` (stereo not drawn) [Example 732, 3-(5-(2-isobutyl-5-phenyloxazol-4-yl)-1-oxoisoindolin-2-yl)piperidine-2,6-dione]: in assay [1], the “Ymin (%)” value is given as “D (0-10% remaining)” and the EC50 was below 10 nM. In assay [2], the half-maximal degradation concentration (DC50) is below 25 nM and the “GSPT1 Ymin” value is recorded as “F (F = >75-100% remaining)”. In assay [3], the “CK1α Ymin” value is “C (C = 0-10% remaining)” and the DC50 is below 25 nM.
As to `CC(C)c1nc(-c2ccc3c(c2)CN(C2CCC(=O)NC2=O)C3=O)c(-c2ccccc2)o1` (stereo not drawn) [Example 733, 3-(5-(2-isopropyl-5-phenyloxazol-4-yl)-1-oxoisoindolin-2-yl)piperidine-2,6-dione], in assay [1], the “Ymin (%)” value is listed as “D (0-10% remaining)” and the EC50 was below 10 nM. Further, in assay [2], the DC50 was at least 25 nM and the “GSPT1 Ymin” value is reported as “F (F = >75-100% remaining)”. In assay [3], the “CK1α Ymin” value is “C (C = 0-10% remaining)” and the DC50 was below 25 nM.

The values are drawn from patent publication US20240158370A1, “CK1 alpha AND DUAL CK1 alpha / GSPT1 DEGRADING COMPOUNDS” (Innovo Therapeutics, Inc., priority 2022, published 2024).
